We go through 16 molecules from US20260184710A1, “CASITAS B-LINEAGE LYMPHOMA PROTOONCOGENE B (CBL-B) DEGRADING COMPOUNDS AND ASSOCIATED METHODS OF USE” (Arvinas Operations, Inc., priority 2022, published 2026).

A value given as a limit tells only on which side of the number the result lay.

Broadly, the Dmax is the largest share of the target that was removed.

T1 sequence (Q13191 whole entry): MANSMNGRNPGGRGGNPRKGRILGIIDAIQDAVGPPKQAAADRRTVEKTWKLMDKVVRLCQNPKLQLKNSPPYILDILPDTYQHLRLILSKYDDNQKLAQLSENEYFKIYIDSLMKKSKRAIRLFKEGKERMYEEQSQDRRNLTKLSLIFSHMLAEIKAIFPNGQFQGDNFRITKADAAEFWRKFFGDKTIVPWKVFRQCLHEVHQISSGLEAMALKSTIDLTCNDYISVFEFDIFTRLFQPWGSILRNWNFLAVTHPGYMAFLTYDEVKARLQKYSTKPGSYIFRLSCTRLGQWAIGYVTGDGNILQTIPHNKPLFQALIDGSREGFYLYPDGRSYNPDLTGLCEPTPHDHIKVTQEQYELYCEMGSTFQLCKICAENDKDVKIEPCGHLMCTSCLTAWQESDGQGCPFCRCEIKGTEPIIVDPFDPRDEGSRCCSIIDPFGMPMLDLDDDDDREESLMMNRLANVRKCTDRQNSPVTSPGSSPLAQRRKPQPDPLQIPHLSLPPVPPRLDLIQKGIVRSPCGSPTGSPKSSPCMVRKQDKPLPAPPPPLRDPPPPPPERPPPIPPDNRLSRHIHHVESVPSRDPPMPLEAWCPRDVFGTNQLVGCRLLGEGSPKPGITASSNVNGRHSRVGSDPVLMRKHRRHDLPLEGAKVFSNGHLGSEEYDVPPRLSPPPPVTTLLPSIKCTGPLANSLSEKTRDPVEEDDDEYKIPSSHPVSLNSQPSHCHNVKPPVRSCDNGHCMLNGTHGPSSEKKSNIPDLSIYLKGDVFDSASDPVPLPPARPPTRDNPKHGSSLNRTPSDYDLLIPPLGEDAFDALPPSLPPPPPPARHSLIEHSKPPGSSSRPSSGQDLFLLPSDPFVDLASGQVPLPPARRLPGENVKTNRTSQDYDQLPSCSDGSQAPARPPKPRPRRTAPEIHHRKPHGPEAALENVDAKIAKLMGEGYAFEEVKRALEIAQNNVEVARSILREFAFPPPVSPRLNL

One assay addresses T1, Cbl-b (Homo sapiens, UniProt Q13191).
T1 construct: Cbl-b-HiBit KI Jurkat Cells were purchased from Promega; host or cells: Cbl-b-HiBiT knock-in Jurkat cells
Put plainly: Cbl-b Degradation Method B (Nano-Glo HiBiT lytic detection). Conditions: Cbl-b-HiBit KI Jurkat Cells, incubated at least 6-24 hours; half maximal degradation; read-out: Cbl-b Degredation Method B IC50. The format is cell-based. In outline: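 Cbl-b-HiBiT knock-in Jurkat cells (20,000/well) were treated after ~24 h plating with an 11-point 1:3 series for 6-24 h at 37° C. Remaining Cbl-b measured by Nano-Glo HiBiT lytic luminescence. DC50 and Dmax expressed as % of control.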
(In general: HiBiT is a short tag that completes a luciferase, so light tracks the accessible tagged protein.)
As to `Cn1cnnc1CC1(c2cccc(N3Cc4c(cc(CN[C@H]5CC[C@H](N6CCN(c7ccc8c(c7)C(=O)N(C7CCC(=O)NC7=O)C8=O)CC6)CC5)cc4C(F)(F)F)C3=O)c2)COC1` (stereo partly drawn) [Example 43, 2-(2,6-dioxopiperidin-3-yl)-5-{4-[(1r,4r)-4-({[2-(3-{3-[(4-methyl-4H-1,2,4-triazol-3-yl)methyl]oxetan-3-yl}phenyl)-3-oxo-7-(trifluoromethyl)-2,3-dihydro-1H-isoindol-5-yl]methyl}amino)cyclohexyl]piperazin-1-yl}-2,3-dihydro-1H-isoindole-1,3-dione], the DC50 lay within 5 to 50 nM.

For the molecule `Cn1cnnc1CC1(c2cccc(N3Cc4c(cc(CN5CCN([C@H]6CC[C@H](Nc7ccc8c(c7)C(=O)N(C7CCC(=O)NC7=O)C8=O)CC6)CC5)cc4C(F)(F)F)C3=O)c2)COC1` (stereo partly drawn) [Example 44, 2-(2,6-dioxopiperidin-3-yl)-5-{[(1r,4r)-4-(4-{[2-(3-{3-[(4-methyl-4H-1,2,4-triazol-3-yl)methyl]oxetan-3-yl}phenyl)-3-oxo-7-(trifluoromethyl)-2,3-dihydro-1H-isoindol-5-yl]methyl}piperazin-1-yl)cyclohexyl]amino}-2,3-dihydro-1H-isoindole-1,3-dione], the DC50 was more than 500 nM.

`Cn1cnnc1CC1(c2cccc(N3Cc4c(cc(CN5CCC6(CC5)CCN(CC5CCN(c7ccc8c(c7)C(=O)N(C7CCC(=O)NC7=O)C8=O)CC5)CC6)cc4C(F)(F)F)C3=O)c2)COC1` (stereo not drawn) [Example 45, 2-(2,6-dioxopiperidin-3-yl)-5-{4-[(9-{[2-(3-{3-[(4-methyl-4H-1,2,4-triazol-3-yl)methyl]oxetan-3-yl}phenyl)-3-oxo-7-(trifluoromethyl)-2,3-dihydro-1H-isoindol-5-yl]methyl}-3,9-diazaspiro[5.5]undecan-3-yl)methyl]piperidin-1-yl}-2,3-dihydro-1H-isoindole-1,3-dione]: the DC50 is more than 500 nM.

With `Cn1cnnc1CC1(c2cccc(N3Cc4c(cc(CN5CCC(CN6CCN(CC7CCN(c8ccc9c(c8)C(=O)N(C8CCC(=O)NC8=O)C9=O)CC7)CC6)CC5)cc4C(F)(F)F)C3=O)c2)COC1` (stereo not drawn) [Example 46, 2-(2,6-dioxopiperidin-3-yl)-5-[4-({4-[(1-{[2-(3-{3-[(4-methyl-4H-1,2,4-triazol-3-yl)methyl]oxetan-3-yl}phenyl)-3-oxo-7-(trifluoromethyl)-2,3-dihydro-1H-isoindol-5-yl]methyl}piperidin-4-yl)methyl]piperazin-1-yl}methyl)piperidin-1-yl]-2,3-dihydro-1H-isoindole-1,3-dione], the DC50 was more than 500 nM.

In the case of `Cn1cnnc1CC1(c2cccc(N3Cc4c(cc(CN5CCN(CCCOc6ccc7c(c6)C(=O)N(C6CCC(=O)NC6=O)C7=O)CC5)cc4C(F)(F)F)C3=O)c2)COC1` (stereo not drawn) [Example 47, 2-(2,6-dioxopiperidin-3-yl)-5-[3-(4-{[2-(3-{3-[(4-methyl-4H-1,2,4-triazol-3-yl)methyl]oxetan-3-yl}phenyl)-3-oxo-7-(trifluoromethyl)-2,3-dihydro-1H-isoindol-5-yl]methyl}piperazin-1-yl)propoxy]-2,3-dihydro-1H-isoindole-1,3-dione], the DC50 is more than 500 nM.

For the molecule `Cn1cnnc1CC1(c2cccc(N3Cc4c(cc(CN5CC(C6CN(c7ccc8c(c7)C(=O)N(C7CCC(=O)NC7=O)C8=O)C6)C5)cc4C(F)(F)F)C3=O)c2)COC1` (stereo not drawn) [Example 48, 2-(2,6-dioxopiperidin-3-yl)-5-(1′-{[2-(3-{3-[(4-methyl-4H-1,2,4-triazol-3-yl)methyl]oxetan-3-yl}phenyl)-3-oxo-7-(trifluoromethyl)-2,3-dihydro-1H-isoindol-5-yl]methyl}-[3,3′-biazetidin]-1-yl)-2,3-dihydro-1H-isoindole-1,3-dione], the DC50 was 50 to 500 nM.

For the molecule `Cn1cnnc1CC1(c2cccc(N3Cc4c(cc(CN5CC6(CCN(c7ccc8c(c7)C(=O)N(C7CCC(=O)NC7=O)C8=O)CC6)C5)cc4C(F)(F)F)C3=O)c2)COC1` (stereo not drawn) [Example 49, 2-(2,6-dioxopiperidin-3-yl)-5-(2-{[2-(3-{3-[(4-methyl-4H-1,2,4-triazol-3-yl)methyl]oxetan-3-yl}phenyl)-3-oxo-7-(trifluoromethyl)-2,3-dihydro-1H-isoindol-5-yl]methyl}-2,7-diazaspiro[3.5]nonan-7-yl)-2,3-dihydro-1H-isoindole-1,3-dione], the DC50 was more than 500 nM.

On to `COc1cc(N2CCN(CC3CCN(Cc4cc5c(c(C(F)(F)F)c4)CN(c4cccc(C6(Cc7nncn7C)COC6)c4)C5=O)CC3)CC2)cc2c1C(=O)N(C1CCC(=O)NC1=O)C2=O` (stereo not drawn) [Example 51, 2-(2,6-dioxopiperidin-3-yl)-4-methoxy-6-{4-[(1-{[2-(3-{3-[(4-methyl-4H-1,2,4-triazol-3-yl)methyl]oxetan-3-yl}phenyl)-3-oxo-7-(trifluoromethyl)-2,3-dihydro-1H-isoindol-5-yl]methyl}piperidin-4-yl)methyl]piperazin-1-yl}-2,3-dihydro-1H-isoindole-1,3-dione], for which the DC50 was more than 500 nM.

For the molecule `COc1cc(N2CCN(Cc3cc4c(c(C(F)(F)F)c3)CN(c3cccc(C5(Cc6nncn6C)COC5)c3)C4=O)CC2)cc2c1C(=O)N(C1CCC(=O)NC1=O)C2=O` (stereo not drawn) [Example 52, 2-(2,6-dioxopiperidin-3-yl)-4-methoxy-6-(4-{[2-(3-{3-[(4-methyl-4H-1,2,4-triazol-3-yl)methyl]oxetan-3-yl}phenyl)-3-oxo-7-(trifluoromethyl)-2,3-dihydro-1H-isoindol-5-yl]methyl}piperazin-1-yl)-2,3-dihydro-1H-isoindole-1,3-dione], the DC50 was more than 500 nM.

In the case of `COc1ccc(C(=O)N2CCC(CN3CCN(Cc4cc5c(c(C(F)(F)F)c4)CN(c4cccc(C6(Cc7nncn7C)COC6)c4)C5=O)CC3)CC2)cc1N1CCC(=O)NC1=O` [Example 53, 1-(2-methoxy-5-{4-[(4-{[2-(3-{3-[(4-methyl-4H-1,2,4-triazol-3-yl)methyl]oxetan-3-yl}phenyl)-3-oxo-7-(trifluoromethyl)-2,3-dihydro-1H-isoindol-5-yl]methyl}piperazin-1-yl)methyl]piperidine-1-carbonyl}phenyl)-1,3-diazinane-2,4-dione], the DC50 is more than 500 nM.

`Cn1cnnc1CC1(c2cccc(N3Cc4c(cc(CN5CCN(CC6CCN(c7ccc(F)c(C(=O)NC8CCC(=O)NC8=O)c7)CC6)CC5)cc4C(F)(F)F)C3=O)c2)COC1` (stereo not drawn) [Example 54, N-(2,6-dioxopiperidin-3-yl)-2-fluoro-5-{4-[(4-{[2-(3-{3-[(4-methyl-4H-1,2,4-triazol-3-yl)methyl]oxetan-3-yl}phenyl)-3-oxo-7-(trifluoromethyl)-2,3-dihydro-1H-isoindol-5-yl]methyl}piperazin-1-yl)methyl]piperidin-1-yl}benzamide]: the DC50 was more than 500 nM.

In the case of `Cn1cnnc1CC1(c2cccc(N3Cc4c(cc(CN5CCC(Cn6cccc(CN7CCC(=O)NC7=O)c6=O)CC5)cc4C(F)(F)F)C3=O)c2)COC1` [Example 55, 1-({1-[(1-{[2-(3-{3-[(4-methyl-4H-1,2,4-triazol-3-yl)methyl]oxetan-3-yl}phenyl)-3-oxo-7-(trifluoromethyl)-2,3-dihydro-1H-isoindol-5-yl]methyl}piperidin-4-yl)methyl]-2-oxo-1,2-dihydropyridin-3-yl}methyl)-1,3-diazinane-2,4-dione], the DC50 was more than 500 nM.

As to `COc1ccc(N2CCC(CN3CCN(Cc4cc5c(c(C(F)(F)F)c4)CN(c4cccc(C6(Cc7nncn7C)COC6)c4)C5=O)CC3)CC2)cc1C(=O)NC1CCC(=O)NC1=O` (stereo not drawn) [Example 56, N-(2,6-dioxopiperidin-3-yl)-2-methoxy-5-{4-[(4-{[2-(3-{3-[(4-methyl-4H-1,2,4-triazol-3-yl)methyl]oxetan-3-yl}phenyl)-3-oxo-7-(trifluoromethyl)-2,3-dihydro-1H-isoindol-5-yl]methyl}piperazin-1-yl)methyl]piperidin-1-yl}benzamide], the DC50 is more than 500 nM.

Consider `Cn1cnnc1CC1(c2cccc(N3Cc4c(cc(CN5CCN(CC6CCN(c7ccc(N8CCC(=O)NC8=O)c(F)c7)CC6)CC5)cc4C(F)(F)F)C3=O)c2)COC1` [Example 57, 1-(2-fluoro-4-{4-[(4-{[2-(3-{3-[(4-methyl-4H-1,2,4-triazol-3-yl)methyl]oxetan-3-yl}phenyl)-3-oxo-7-(trifluoromethyl)-2,3-dihydro-1H-isoindol-5-yl]methyl}piperazin-1-yl)methyl]piperidin-1-yl}phenyl)-1,3-diazinane-2,4-dione], for which the DC50 was more than 500 nM.

As to `Cn1cnnc1CC1(c2cccc(N3Cc4c(cc(CN5CC(CC6CN(c7ccc8c(c7)C(=O)N(C7CCC(=O)NC7=O)C8=O)C6)C5)cc4C(F)(F)F)C3=O)c2)COC1` (stereo not drawn) [Example 58, 2-(2,6-dioxopiperidin-3-yl)-5-{3-[(1-{[2-(3-{3-[(4-methyl-4H-1,2,4-triazol-3-yl)methyl]oxetan-3-yl}phenyl)-3-oxo-7-(trifluoromethyl)-2,3-dihydro-1H-isoindol-5-yl]methyl}azetidin-3-yl)methyl]azetidin-1-yl}-2,3-dihydro-1H-isoindole-1,3-dione], the DC50 was more than 500 nM.

Turning to `Cn1cnnc1CC1(c2cccc(N3Cc4c(cc(CN5CCC(C(C)(C)N6CCN(c7ccc8c(c7)C(=O)N(C7CCC(=O)NC7=O)C8=O)CC6)CC5)cc4C(F)(F)F)C3=O)c2)COC1` (stereo not drawn) [Example 59, 2-(2,6-dioxopiperidin-3-yl)-5-{4-[2-(1-{[2-(3-{3-[(4-methyl-4H-1,2,4-triazol-3-yl)methyl]oxetan-3-yl}phenyl)-3-oxo-7-(trifluoromethyl)-2,3-dihydro-1H-isoindol-5-yl]methyl}piperidin-4-yl)propan-2-yl]piperazin-1-yl}-2,3-dihydro-1H-isoindole-1,3-dione], the DC50 was more than 500 nM.

The same assay, now with this note: Cbl-b-HiBit KI Jurkat Cells, incubated at least 6-24 hours; maximum degradation observed; read-out: Cbl-b Degredation Method B Dmax (%).
Turning to `Cn1cnnc1CC1(c2cccc(N3Cc4c(cc(CN[C@H]5CC[C@H](N6CCN(c7ccc8c(c7)C(=O)N(C7CCC(=O)NC7=O)C8=O)CC6)CC5)cc4C(F)(F)F)C3=O)c2)COC1` (stereo partly drawn) [Example 43, 2-(2,6-dioxopiperidin-3-yl)-5-{4-[(1r,4r)-4-({[2-(3-{3-[(4-methyl-4H-1,2,4-triazol-3-yl)methyl]oxetan-3-yl}phenyl)-3-oxo-7-(trifluoromethyl)-2,3-dihydro-1H-isoindol-5-yl]methyl}amino)cyclohexyl]piperazin-1-yl}-2,3-dihydro-1H-isoindole-1,3-dione], the Dmax was less than 35%.

As to `Cn1cnnc1CC1(c2cccc(N3Cc4c(cc(CN5CC(C6CN(c7ccc8c(c7)C(=O)N(C7CCC(=O)NC7=O)C8=O)C6)C5)cc4C(F)(F)F)C3=O)c2)COC1` (stereo not drawn) [Example 48, 2-(2,6-dioxopiperidin-3-yl)-5-(1′-{[2-(3-{3-[(4-methyl-4H-1,2,4-triazol-3-yl)methyl]oxetan-3-yl}phenyl)-3-oxo-7-(trifluoromethyl)-2,3-dihydro-1H-isoindol-5-yl]methyl}-[3,3′-biazetidin]-1-yl)-2,3-dihydro-1H-isoindole-1,3-dione], the Dmax is 35 to 70%.
